Source: US10800789B2, “Antiviral compounds” (Gilead Pharmasset LLC, priority 2012, dated 2020)
Where two headings read alike, the source gives them in different places.

How the values were obtained:
[1] = system: NS5A chimeric genotype 1b Con1 replicon with genotype 3a S52 strain NS5A gene; experiment: Replicon assay, genotype 3a NS5A chimera; assay type: cell-based, HCV
[2] = IV and PO single dose pharmacokinetic studies in SD rats; assay type: in vivo, male Sprague-Dawley (SD) rats; details: male SD rats, PO 2 mg/kg vs IV infusion 1 mg/kg; for bioavailability: Sprague-Dawley, rat, plasma, read-out: Rat % F
Outline: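 Fasted male Sprague-Dawley rats (250-300g, n=3/group) were given 1 mg/kg IV as a 30-min jugular infusion (5% ethanol/35% PEG 400/water pH 2.0) or 2 mg/kg by oral gavage (5% ethanol/55% PEG 400/citrate pH 2.2). Plasma was sampled to 24 h and analysed by LC/MS/MS. Non-compartmental parameters were derived, and %F was calculated from the oral/IV AUC ratio.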

[3] = system: Q30R in genotype 1a NS5A (1a Pi-Rluc replicon, Huh-7-derived cured-51 cells); experiment: Replicon assay against resistance mutant 1a Q30R; assay type: cell-based, HCV
Outline: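 Q30R introduced by site-directed mutagenesis into the 1a Pi-RLuc replicon; replicon RNA transiently transfected into cured-51 cells. Cells treated with 3-fold serially diluted compound for 72 h, then lysed and Renilla luciferase measured; EC50 by non-linear regression.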

[4] = system: stable HCV 1b RLuc replicon cells (dicistronic genotype 1b Con1 replicon); experiment: Renilla luciferase HCV replicon reporter assay, genotype 1b; assay type: cell-based; details: stable 1b Con1 RLuc replicon cells, 72 hours, read-out: 1b
Outline: (§1)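 Antiviral EC50 was determined in HCV replicon cells (stable RLuc lines for 1a H77, 1b Con1, 2a JFH-1 with NS5A L31; J6 NS5A chimera with M31) treated 72 h with compound. Renilla luciferase was then quantified.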

[5] = system: stable HCV 1a RLuc replicon cells (dicistronic genotype 1a H77 replicon); experiment: Renilla luciferase HCV replicon reporter assay, genotype 1a; assay type: cell-based; details: stable 1a H77 RLuc replicon cells
Outline: as §1

[6] = system: NS5A chimeric genotype 2a JFH-1 replicon with genotype 2b MD2b-1 strain NS5A gene (M31 present); experiment: Replicon assay, genotype 2b NS5A chimera; assay type: cell-based, HCV
Outline: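 Cells carrying the stable or transiently transfected (Huh-Lunet) dicistronic RLuc replicons received 3-fold serial compound dilutions from 10 mM DMSO stocks. After 72 h, cells were lysed and Renilla luciferase read. DMSO served as the no-inhibition control and ITMN-191 above 100×EC50 as the positive control; EC50 by non-linear regression.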

[7] = system: stable HCV 2a JFH-1 Rluc replicon cells (L31 present in NS5A); experiment: Renilla luciferase HCV replicon reporter assay, genotype 2a JFH-1; assay type: cell-based
Outline: as §1

[8] = system: NS5A chimeric genotype 1b Con1 replicon with genotype 4a ED43 strain NS5A gene; experiment: Replicon assay, genotype 4a NS5A chimera; assay type: cell-based, HCV
[9] = system: NS5A chimeric genotype 2a JFH-1 replicon with genotype 2a J6 strain NS5A gene (M31 present); experiment: Replicon assay, genotype 2a J6 NS5A chimera; assay type: cell-based, HCV
Outline: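 First, 3-fold serial dilutions of compound went onto replicon cells, DMSO serving as no-inhibition control and ITMN-191 at >100×EC50 as positive control. Next came 72 h incubation, lysis and Renilla luciferase measurement. Finally, EC50 was calculated by non-linear regression; replicons covered genotypes 1a H77, 1b Con1, 2a JFH-1 (L31) and J6-NS5A chimera (M31).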

[10] = Hepatitis C virus, read-out: 3a (s) (nM), genotype 3a NS5A chimeric replicon, stable replicon cells (s)
[11] = Hepatitis C virus, read-out: 3a (s), (s), activity range
[12] = Hepatitis C virus, read-out: 1a Q30R
[13] = Hepatitis C virus, read-out: 1a Q30R (nM)
[14] = Hepatitis C virus, 72 h, activity range
[15] = Hepatitis C virus, 2BS, read-out: 2b (s), stably replicating replicon cells (s), activity range
[16] = Hepatitis C virus, read-out: 2b (s) (nM), genotype 2b MD2b-1 NS5A chimeric replicon (M31), stably replicating replicon cells (s)
[17] = Hepatitis C virus, read-out: 2b (t) (nM), genotype 2b MD2b-1 NS5A chimeric replicon (M31), transiently transfected (t)
[18] = Hepatitis C virus, read-out: 2a JFH (nM), genotype 2a JFH-1 replicon (L31 in NS5A), stable cells
[19] = Hepatitis C virus, read-out: 2a JFH, stable 2a JFH-1 Rluc replicon cells, L31 in NS5A, activity range
[20] = Hepatitis C virus, read-out: 4a (s) (nM), genotype 4a NS5A chimeric replicon, stable replicon cells (s)
[21] = Hepatitis C virus, read-out: 4a (s), (s), activity range
[22] = Hepatitis C virus, read-out: 2a J6 (t) (nM), genotype 2a J6 NS5A chimeric replicon (M31), transiently transfected (t) into Huh-Lunet cells
[23] = Hepatitis C virus, read-out: 2a J6 (t), transiently transfected (t) into Huh-Lunet cells, activity range

SMILES | EC50 [1, 10] [nM] | EC50 [1, 11] [nM] | bioavailability [2] [%] | EC50 [3, 12] [nM] | EC50 [3, 13] [nM] | EC50 ([4]; Hepatitis C virus, 72 h) [nM] | EC50 ([5]; Hepatitis C virus, 72 h) [nM] | EC50 [5, 14] [nM] | EC50 [6, 15] [nM] | EC50 [6, 16] [nM] | EC50 [6, 17] [nM] | EC50 [7, 18] [nM] | EC50 [7, 19] [nM] | EC50 [8, 20] [nM] | EC50 [8, 21] [nM] | EC50 [9, 22] [nM] | EC50 [9, 23] [nM] | also measured
COC(=O)N[C@H](C(=O)N1[C@@H](C)CC[C@H]1c1ncc(-c2ccc3c(c2)COc2cc4c(ccc5nc([C@@H]6CC[C@H](C)N6C(=O)[C@@H](NC(=O)OC)[C@@H](C)OC)[nH]c54)cc2-3)[nH]1)C(C)C [DX, Methyl {(2S)-1-[(2S,4S)-2-(5-{2-[(2S,5S)-1-{(2S,3R)-3-methoxy-2-[(methoxycarbonyl)amino]butanoyl}-5-methylpyrrolidin-2-yl]-1,11-dihydroisochromeno[4′,3′:6,7]naphtho[1,2-d]imidazol-9-yl}-1H-imidazol-2-yl)-5-methylpyrrolidin-1-yl]-3-methyl-1-oxobutan-2-yl}carbamate] |  |  |  |  |  |  |  |  |  |  |  |  |  |  |  |  |  | EC50 ([1]; (s), activity range, read-out: 3a (s)): < 0.1 nM; EC50 ([1]; genotype 3a NS5A chimeric replicon, stable replicon cells (s), read-out: 3a (s)): 0.048 nM; Rat % F ([2]; oral bioavailability): 21.3%; EC50 ([3]; Q30R mutant replicon transiently transfected into Huh-7-derived cured-51 cells, activity range, read-out: 1a Q30R): 0.1 to 0.999 nM; EC50 ([3]; Q30R mutant replicon transiently transfected into Huh-7-derived cured-51 cells, read-out: 1a Q30R): 0.138 nM; EC50 [4]: 0.031 nM; EC50 ([5]; 72 hours): 0.021 nM; EC50 ([5]; 72 hours, activity range): < 0.1 nM; EC50 ([6]; genotype 2b MD2b-1 NS5A chimeric replicon (M31), stably replicating replicon cells (s), read-out: 2b (s)): 0.201 nM; EC50 ([6]; genotype 2b MD2b-1 NS5A chimeric replicon (M31), transiently transfected (t), read-out: 2b (t)): 0.06 nM; EC50 ([6]; stably replicating replicon cells (s), activity range, read-out: 2b (s)): 0.1 to 0.999 nM; EC50 ([6]; transiently transfected (t) into Huh-Lunet cells, activity range, read-out: 2b (t)): < 0.1 nM; EC50 ([7]; genotype 2a JFH-1 replicon (L31 in NS5A), stable cells, read-out: 2a JFH): 0.019 nM; EC50 ([7]; stable 2a JFH-1 Rluc replicon cells, L31 in NS5A, activity range, read-out: 2a JFH): < 0.1 nM; EC50 ([8]; (s), activity range, read-out: 4a (s)): < 0.1 nM; EC50 ([8]; genotype 4a NS5A chimeric replicon, stable replicon cells (s), read-out: 4a (s)): 0.018 nM; EC50 ([9]; genotype 2a J6 NS5A chimeric replicon (M31), transiently transfected (t) into Huh-Lunet cells, read-out: 2a J6 (t)): 0.109 nM; EC50 ([9]; transiently transfected (t) into Huh-Lunet cells, activity range, read-out: 2a J6 (t)): 0.1 to 0.999 nM
COC(=O)NC(C(=O)N1[C@@H](C)CC[C@H]1c1nc2ccc3cc4c(cc3c2[nH]1)OCc1cc(-c2cnc([C@@H]3CC[C@H](C)N3C(=O)[C@@H](NC(=O)OC)C3CCOCC3)[nH]2)ccc1-4)C1CCOCC1 (stereo partly drawn) [EB, Methyl [(1 S)-2-[(2S,5S)-2-(5-{2-[(2S,5S)-1-{[(methoxycarbonyl)amino](tetrahydro-2H-pyran-4-yl)acetyl}-5-methylpyrrolidin-2-yl]-1,11-dihydroisochromeno[4′,3′:6,7]naphtho[1,2-d]imidazol-9-yl}-1H-imidazol-2-yl)-5-methylpyrrolidin-1-yl]-2-oxo-1-(tetrahydro-2H-pyran-4-yl)ethyl]carbamate] | 0.075 | < 0.1 | 4.2 | < 0.1 | 0.042 | 0.051 | 0.024 | < 0.1 | < 0.1 | 0.038 | 0.092 | 0.012 | < 0.1 | 0.014 | < 0.1 | 0.012 | < 0.1 | EC50 ([6]; Hepatitis C virus, read-out: 2b (t), transiently transfected (t) into Huh-Lunet cells, activity range): < 0.1 nM
CC[C@H](C)C(NC(=O)OC)C(=O)N1[C@@H](C)CC[C@H]1c1nc2ccc3cc4c(cc3c2[nH]1)OCc1cc(-c2cnc([C@@H]3CC[C@H](C)N3C(=O)[C@@H](NC(=O)OC)[C@@H](C)OC)[nH]2)ccc1-4 (stereo partly drawn) [EH, methyl{(3S)-1-[(2S,5S)-2-(9-{2-[(2S,5S)-1-{(2S,3R)-3-methoxy-2-[(methoxycarbonyl)amino]butanoyl}-5-methylpyrrolidin-2-yl]-1H-imidazol-5-yl}-1,11-dihydroisochromeno[4′,3′:6,7]naphtho[1,2-d]imidazol-2-yl)-5-methylpyrrolidin-1-yl]-3-methyl-1-oxopentan-2-yl}carbamate] | 0.022 | < 0.1 | 15.8 | < 0.1 | 0.082 | 0.015 | 0.011 | < 0.1 | 0.1 to 0.999 | 0.153 |  | 0.013 | < 0.1 | 0.006 | < 0.1 | 0.086 | < 0.1 | EC50 ([1]; Hepatitis C virus, read-out: 3a (t) (nM), genotype 3a NS5A chimeric replicon, transiently transfected (t)): 0.024 nM; EC50 ([1]; Hepatitis C virus, read-out: 3a (t), transiently transfected (t) into Huh-Lunet cells, activity range): < 0.1 nM
COC(=O)N[C@H](C(=O)N1[C@@H](C)CC[C@H]1c1ncc(-c2ccc3c(c2)COc2cc4c(ccc5nc([C@@H]6C[C@H](COC(F)F)CN6C(=O)[C@@H](NC(=O)OC)[C@@H](C)OC)[nH]c54)cc2-3)[nH]1)C(C)C [FO] | 0.055 | < 0.1 | 17.2 | 0.1 to 0.999 | 0.112 | 0.009 | 0.01 | < 0.1 | 0.1 to 0.999 | 0.164 |  | 0.008 | < 0.1 | 0.007 | < 0.1 |  |  | 
CC[C@H](C)[C@H](NC(=O)OC)C(=O)N1[C@@H](C)CC[C@H]1c1nc2ccc3cc4c(cc3c2[nH]1)OCc1cc(-c2cnc([C@@H]3CC[C@H](C)N3C(=O)[C@@H](NC(=O)OC)C3CCOCC3)[nH]2)ccc1-4 [FQ, Methyl [(1 S)-2-[(2S,5S)-2-(5-{2-[(2S,5S)-1-{(2S,3S)-2-[(methoxycarbonyl)amino]-3-methylpentanoyl}-5-methylpyrrolidin-2-yl]-1,11-dihydroisochromeno[4′,3′:6,7]naphtho[1,2-d]imidazol-9-yl}-1H-imidazol-2-yl)-5-methylpyrrolidin-1-yl]-2-oxo-1-(tetrahydro-2H-pyran-4-yl)ethyl]carbamate] | 0.02 | < 0.1 | 17.7 | < 0.1 | 0.097 | 0.019 | 0.012 | < 0.1 | < 0.1 | 0.066 |  | 0.01 | < 0.1 |  |  |  |  | 
CC[C@H](C)[C@H](NC(=O)OC)C(=O)N1[C@H](c2ncc(-c3ccc4c(c3)COc3cc5c(ccc6nc([C@@H]7CC[C@H](C)N7C(=O)[C@@H](NC(=O)OC)C7CCOCC7)[nH]c65)cc3-4)[nH]2)C[C@@H]2CCC[C@@H]21 [IL] | 0.083 | < 0.1 | 40.9 | < 0.1 |  | 0.034 | 0.028 | < 0.1 | 0.1 to 0.999 | 0.143 | 0.025 | 0.019 | < 0.1 | 0.04 | < 0.1 |  |  | 
